Measured values taken from US5372944A, “Method for conversion of halogenated hydrocarbons to halohydrins” (The Dow Chemical Company, priority 1993, dated 1994).

How the values were obtained:
[1] = tested on: TDTM-003-60-2-11; test: Utilization of carbon containing compounds for growth in liquid culture, TDTM-003-60-2-11; type: cell-based, Rhodococcus species ATCC 55388;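 further: minus means no visible growth and plus means good growth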
Text: A representative double mutant designated TDTM-003-60-2-11, made by the above example was deposited at the American Type Culture Collection on Jan. 28, 1993 and given the ATCC designation 55388.

[2] = tested on: TDTM-003; test: Utilization of carbon containing compounds for growth in liquid culture, TDTM-003; type: cell-based, Rhodococcus species; conditions: liquid culture
[3] = tested on: TDTM-003-60-2-11; test: Dehalogenation by double mutant strain TDTM-003-60-2-11 in shake flask with bulb feeder; type: cell-based, Rhodococcus sp.; conditions: for halohydrin accumulated in culture broth: after 120 hours; for overall rate of halohydrin production: 28° C., 150 rpm, substrate from bulb feeder
Text: (§1) For gas chromatography (GC) analysis of halogenated metabolites, cultures were centrifuged briefly to remove cells, saturated with sodium sulfate, and an equivalent volume of methylene chloride added. The suspension was vortexed vigorously, centrifuged to break the emulsion and the methylene chloride phase removed.
(§2) Analysis of all halocarbon substrates and products from culture broths was done by GC using a Hewlett Packard 5710 equipped with a 7671A Autoinjector with the following protocol:
Dehalogenation of 1,2-dichloropropane by the double mutant strain of Rhodococcus sp., designated TDTM-003-60-2-11 was assayed in the following manner: 5 mL of an overnight culture (16 hours) were used as inoculum for 50 mL MM1X4P containing 5 g/L disodium succinate in a 250 mL flask. At 4 and 8 hours growth, 10 μL of 1-chlorobutane was added to induce the dehalogenase enzyme. Following 24 hours of growth, cells were harvested by centrifugation, resuspended into 50 mL of fresh MM1X4P, and transferred to a sterile 250 mL shake flask equipped with a bulb feeder. To the bulb feeder was added 1,2-dichloropropane and incubation continued at 28° C. and 150 rpm. […] The production of halohydrin products was monitored by gas chromatography. 1 -Chloro-2-propanol and 2-chloro-1-propanol accumulate linearly in the culture broth to 74 parts-per-million (ppm) (w/v) and 20 ppm (w/v) respectively after 120 hours. The overall rate of halohydrin production is 0.60 mg/g dry cells/hr.
The procedure described in Example 6 was followed except 1,2-dichlorobutanereplaced 1-chlorobutane in the bulb feeder.
The procedure described in Example 6 was followed except 1,2,3-trichloropropane replaced 1-chlorobutane in the bulb feeder.

[4] = target: partially purified TDTM-003 dehalogenase (Rhodococcus sp. TDTM0003, UniProt P59336); test: Substrate profile of partially purified TDTM-003 dehalogenase; type: biochemical, Rhodococcus species TDTM-003; conditions: corrected for non-enzymatic hydrolysis
Procedure: (§3) Hydrolytic dehalogenase enzyme activity was evaluated by adding an appropriate amount of cell free extract or enzyme preparation to 5.0 mL of 100 mM glycine buffer, pH=9.0 in a 7 mL glass vial. The halogenated substrate (5.0 μl) and a small stir bar were added, and the vial capped. Reaction was initiated by transfer to a 30° C. water bath equipped with a magnetic stirrer. Periodically 1.0 mL samples were removed and assayed for free halide. Rates were determined after correcting for non-enzymatic hydrolysis with an appropriate blank. A standard curve was prepared using sodium chloride.
Frozen pellets from 2 liters of culture were thawed into 150 mL of 10 mM Tris sulfate buffer, pH=7.5 containing 1 mM disodium EDTA. This buffer was used throughout the entire purification. The suspension was sonicated for approximately 1 hour with ice cooling using a Microson Ultrasonic Cell Disrupter and centrifuged at 10,000 rpm for 15 minutes to remove cell debris. Supernatant was removed and the sonication/centrifugation repeated with fresh buffer to increase enzyme yield. Overall sonication efficiency was monitored by absorbence at 280 nm. Cell free extracts were combined and brought slowly to 30 percent saturation with solid ammonium sulfate. The suspension was centrifuged at 10,000 rpm for 30 minutes and the pellet discarded. The supernatant was brought to 70 percent saturation with solid ammonium sulfate and centrifugation repeated. Supernatant was discarded and the pellet taken up in a small volume of buffer and dialyzed overnight against 1 liter of the same. The preparation was applied to a 1.5×15cm column of DEAE-Sephadex equilibrated with the same buffer elution carried out with a 1 liter gradient from 0 to 400 mM ammonium sulfate. Fractions of about 7-8 mLs were collected. The active fractions were pooled and brought to 90 percent saturation with ammonium sulfate. The pellet was taken up in a minimal amount of buffer, ultrafiltered to 2.5 mL using 10,000 MWCO Novacell Ultrafiltration cell, and applied to a 1.5×90 cm Sephadex G-100 column. Elution was by gravity at 90 cm and fractions of 7-8 mLs were collected. Active fractions were poled, brought to 30 percent saturation with ammonium sulfate, and applied to a 10 ml column of Butyl-agarose equilibrated in the same. Elution was performed with a 500 mL gradient from 30 percent-0 percent ammonium sulfate. Active fractions were pooled, dialyzed and used for substrate selectivity studies.
To evaluate the substrate selectivity of haloalkane dehalogenase from isolated Rhodococcus species, an enzyme preparation from the strain designated TDTM-003 was purified by the procedure described under General Experimental. This preparation provided a dehalogenase which was approximately 50 percent pure as estimated by SDS-PAGE and was free of interfering halohydrin dehalogenase activity.
The activity of this partially purified TDTM-003 dehalogenase preparation was evaluated against various chlorinated and brominated substrates. Each enzymatic rate was corrected for non-enzymatic hydroloysis.

[5] = tested on: dehalogenase in cell free extracts of Rhodococcus Rhodochrous, TDTM-003; test: Primary screen of dehalogenase activity in cell free extracts of TDTM-003; type: biochemical
Procedure: Following overnight growth, 50 μl of 1-chlorobutane was added to induce the dehalogenase. After 24 hours induction, cells were harvested by centrifugation, resuspended in cold 10mM Tris sulfate/1 mM disodium EDTA, pH=7.5, and disrupted by sonication. Cell debris was removed by centrifugation at 10,000 rpm for 30 minutes, cell free extracts dialyzed overnight against the same buffer, and assayed without dilution for dehalogenase activity.
Free chloride or bromide was assayed qualitatively using a chloride electrode (Orion), or quantitatively using the colorimetric method (430 nm) described by J. G. Bergmann, et al., Anal. Chem., 29:241-243 (1957).
as §3
Preliminary studies were performed on cell free extracts of TDTM-003 to evaluate the enzyme substrate selectivity, and the results of this study are shown in Table 2.

[6] = tested on: double mutants lacking both ADH and halohydrin dehalogenase activity; test: Whole cell conversion of DCP, DCB and TCP by double mutants: kinetics, selectivity, enantioselectivity; type: cell-based, Rhodococcus species; conditions: double mutants grown on succinate, induced with 1-chlorobutane
Procedure: To evaluate kinetics and selectivity of various mutants with respect to conversion of the target halocarbons, 1,2-dichloropropane (DCP), 1,2-dichloro-butane (DCB) and 1,2,3-trichloropropane (TCP) cultures were first inoculated from slants into 25 mL nutrient media in a 125 mL flask and grown overnight. Five mL were inoculated into 50 mL of MM1X4P containing 5 g/L disodium succinate in a 250 mL flask. Following 4 hours of growth and again at 8 hours, 10 μl of 1-chlorobutane was added for induction of the dehalogenase. Following 24 hours growth, cells were harvested by centrifugation and resuspended into 50 mL of fresh sterile MM1X4P and transferred to a sterile 250 mL shake flask equipped with a bulb feeder as described by Gibson, et al., supra. DCP, DCB, and TCP were added to bulb feeders and reaction progress monitored by gas chromatography (GC). Throughout the protocol, volumes were modified as needed to provide higher concentrations of cells and/or to provide identical batches of induced cells for comparative studies.
as §1, §2
Analysis for optical activity of microbially produced 2,3-dichloro-1-propanol was determined independently using two methods. […] Enantiomeric composition of DCP, DCB, and respective halohydrins can also be monitored using a derivatized cyclodexdrin gas chromatography column (CHIRALDEX™ type B-TA Column, Advanced Separation Technologies, Inc.). Enantiomeric excess was determined by a comparison of peak areas.
The double mutants were evaluated for conversion of DCP, DCB, and TCP following growth on succinate in the presence of 1-chlorobutane as an inducer of the dehalogenase. […]

partially purified TDTM-003 dehalogenase, sequence (P59336 whole entry): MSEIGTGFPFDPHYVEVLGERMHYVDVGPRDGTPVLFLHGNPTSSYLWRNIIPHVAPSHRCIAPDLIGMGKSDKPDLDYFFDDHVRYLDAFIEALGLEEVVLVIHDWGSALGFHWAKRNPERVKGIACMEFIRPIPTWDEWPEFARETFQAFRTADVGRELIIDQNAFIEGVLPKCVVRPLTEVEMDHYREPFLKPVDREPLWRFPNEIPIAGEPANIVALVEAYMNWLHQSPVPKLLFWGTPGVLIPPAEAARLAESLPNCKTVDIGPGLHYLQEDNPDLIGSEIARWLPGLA

Row | Molecule | Utilization of carbon source for growth, TDTM-003-60-2-11 [1] | Utilization of carbon source for growth, TDTM-003 [2] | Relative Rate of Halogen Release, 1-Chlorobutane = 100 [4] | Relative Rate of Chloride Release, 1-chlorobutane = 100 [5] | other results
1 | Glycogen | + | + |  |  | 
2 | CCC(Cl)CO (stereo not drawn) [2-chloro-1-butanol] |  |  |  |  | halohydrin accumulated in culture broth ([3]; substrate 1,2-dichlorobutane): 265 ppm (w/v)
3 | O=C(O)c1ccc(O)cc1 [p-OH-Benz] | - | - |  |  | 
4 | OC(CCl)CCl [1,3-dichloro-2-propane] | - | +/- |  |  | 
5 | O=C(O)c1cccc(O)c1 [m-OH Benz] | - | - |  |  | 
6 | OCC(Cl)CCl (stereo not drawn) [2,3-dichloro-1-propane] | - | + /- |  |  | 
7 | CCC(O)CCl (stereo not drawn) [1-Chloro-2-butanol] |  |  |  |  | halohydrin accumulated in culture broth ([3]; substrate 1,2-dichlorobutane): 6.5 ppm (w/v)
8 | ClCCCCCl [1,4-dichlorobutane] |  |  | 261.000 | 178 | 
9 | CCCCCl [1-chlorobutane] |  |  | 100.000 | 100 | 
10 | CCCCBr [1-bromobutane] |  |  | 265.000 | 362 | 
11 | Dextrin | - | - |  |  | 
12 | ClCC(Cl)CCl [1,2,3-trichloropropane] |  |  | 18.000 | 23 | in vivo rates of conversion [6]: 1.06 mg product/g dry cells/hr; overall rate of halohydrin production [3]: 2.39 mg/g dry cells/hr
13 | Phenylacetate | - | + |  |  | 
14 | OCC(Cl)CCl (stereo not drawn) [2,3-dichloro-1-propanol] |  |  |  |  | halohydrin accumulated in culture broth ([3]; substrate 1,2,3-trichloropropane): 211 ppm (w/v)
15 | CC(Cl)CO (stereo not drawn) [2-chloro-1-propanol] |  |  |  |  | halohydrin accumulated in culture broth ([3]; substrate 1,2-dichloropropane): 20 ppm (w/v)
16 | ClCCCCCCCCCCCl [1,10-dichlorodecane] |  |  | 52.000 | 124 | 
17 | O=C(O)[C@H](O)[C@@H](O)[C@H](O)[C@H](O)CO [Gluconate] | ++ | ++ |  |  | 
18 | CC(C)(Cl)CCl [1,2-dichloro-2-methylpropane] |  |  | 0.000 | 300 | 
19 | CCCCCCl [1-chloropentane] |  |  | 81.000 | 109 | 
20 | CCC(Cl)CCl (stereo not drawn) [1,2-dichlorobutane] |  |  | 33.000 | 108 | in vivo rates of conversion [6]: 1.29 mg product/g dry cells/hr; overall rate of halohydrin production [3]: 2.47 mg/g dry cells/hr
21 | O=C[C@H](O)[C@@H](O)[C@H](O)[C@H](O)CO [Glucose] | + + |  |  |  | 
22 | CCC(N)C(=O)O (stereo not drawn) [Aminobutyrate] | + | + |  |  | 
23 | ClCCCl [1,2-dichloroethane] |  |  | 4.400 | 2.8 | 
24 | CC(O)CCl (stereo not drawn) [1-chloro-2-propanol] |  |  |  |  | halohydrin accumulated in culture broth ([3]; substrate 1,2-dichloropropane): 74 ppm (w/v)
25 | Inulin | - | - |  |  | 
